Reference: patent US6174907A, “Benzimidazole compounds containing 1,2,4-triazole ring, and compositions and methods of use containing the same” (Fuji Photo Film Co., Ltd., priority 1995, dated 2001)
Read-outs that look alike come from different tables or passages of the source.

Experiments:
[1] = tested on: mouse peritoneal macrophages; assay: Cytotoxicity examined microscopically (morphological alteration of cells); type: cell-based, mouse (female ICR); conditions: 5 μM, observed microscopically
Experimental: (§1) Activity of the compounds of the present invention for suppressing the foaming of macrophages, which triggers arterial sclerosis, was examined by an in vitro experiment using mouse peritoneal macrophages. 15-Week old female ICR mice (Nippon SLC) were subjected to bleeding by cutting off their cervicalis, and Hanks buffer (Nippon Seiyaku) was injected into their peritoneal cavities. After abdominal regions of the mice were massaged, the buffer was recovered immediately, and then the resulting buffer was centrifuged at 1,000 r.p.m. for five minutes to collect peritoneal macrophages. Then, the collected macrophages were suspended in GTI medium (Wako Pure Chemical Industries), and inoculated onto a 24-well microtiter plate. After the macrophages were cultivated at 37° C. under 5% CO2 for two hours, the culture medium was changed with Dulbecco Modified Eagle Medium (MEM, Nippon Seiyaku). The macrophages were further cultivated at 37° C. under 5% CO2 for 16 hours, and then a test compound and liposomes were added to the culture.
(§2) After cultivation was further continued at 37° C. under 5% CO2 for 16 hours, lipid fraction was extracted with chloroform and methanol. The extracted lipid fraction was dissolved in isopropyl alcohol, and the produced cholesterol ester (CE) was quantified by an enzymatic luminescence method. Yield of the cholesterol ester was calculated as a relative ratio based on yield of the control as 100% where no test compound was added. Cytotoxicity was examined microscopically by observing morphological alteration of cells. In the tables, compound numbers correspond to those of the compounds of present invention described in the examples.

[2] = tested on: mouse peritoneal macrophages; assay: Suppression of foaming of macrophages (cholesterol ester synthesis) in vitro; type: cell-based, mouse (female ICR); conditions: Mus musculus, Peritoneal macrophage, 5 μM, 16 hours, relative to control as 100%, smaller value = more potent suppression, read-out: Rate of CE synthesis (%)
Experimental: Activity of the compounds of the present invention for suppressing the foaming of macrophages
as §1
1) Test compound: dissolved in DMSO (Wako Pure Chemical Industries),
PC: Phosphatidylcholine (Funakoshi);
PS: Phosphatidylserine (Funakoshi);
DCP: Dicetylphosphate (Funakoshi);
CHOL: Cholesterol (Sigma)
as §2

| Structure (SMILES) | Cytotoxicity ([1]; Table 3) | activity at 5 µM ([2]; Table 3) | Cytotoxicity ([1]; Table 4) | activity at 5 µM ([2]; Table 4) |
| --- | --- | --- | --- | --- |
| O=[N+]([O-])c1ccc2[nH]c(CCCCCSc3nc4ccccc4[nH]3)nc2c1 [Compound A30] | Not observed | 52% |  |  |
| CCOC(=O)c1ccc2[nH]c(SCCCCCSc3ccccn3)nc2c1 [Compound B36] |  |  | Not observed | 26% |
| Oc1ccc2[nH]c(SCCCCCSc3nc4ccccc4[nH]3)nc2c1 [Compound A6, 1-(2'-benzimidazolylthio)-5-(2"-(5"-hydroxybenzimidazolyl)thio)pentane] | Not observed | 46% |  |  |
| c1ccc(SCCCCSc2nc3ccccc3[nH]2)nc1 [Compound B29] |  |  | Not observed | 14% |
| Cc1cc2nc(CCCCCSc3ccccn3)[nH]c2cc1C [Compound B45] |  |  | Not observed | 48% |
| Oc1cc(SCCCCCSc2nc3cc(Cl)c(Cl)cc3[nH]2)nc2ccccc12 [Compound B58] |  |  | Not observed | 18% |
| Cc1ccc2[nH]c(SCCOCCOCCSc3nc4ccccc4[nH]3)nc2c1 [Compound A22] | Not observed | 20% |  |  |
| FC(F)(F)c1ccc2c(SCCCCCSc3nc4ccccc4[nH]3)ccnc2c1 [Compound B63] |  |  | Not observed | 15% |
| Cn1ccnc1SCCCCCSc1nc2ccccc2[nH]1 [Compound B2] |  |  | Not observed | 16% |
| c1ccc2[nH]c(SCCCCCSc3nnc(SCCn4ccnc4)s3)nc2c1 [Compound B21] |  |  | Not observed | 11% |
| Cc1ccc2[nH]c(SCCCCCSc3nc4cc(Cl)c(Cl)cc4[nH]3)nc2c1 [Compound A14, 1-(2'-(5',6'-dichlorobenzimidazolyl)thio)-5-(2"-(5"-methylbenzimidazolyl)thio)pentane] | Not observed | 42% |  |  |
| c1ccc(SCCCCCCCCSc2nc3ccccc3[nH]2)nc1 [Compound B32] |  |  | Not observed | 37% |
| c1ccc2[nH]c(SCCCCCSc3nnc(-c4ccncc4)o3)nc2c1 [Compound B24] |  |  | Not observed | 9.5% |
| Oc1ccnc(SCCCCCSc2nc3ccccc3[nH]2)c1 [Compound B53] |  |  | Not observed | 52% |
| CN(C)C(=O)c1ccc2[nH]c(SCCCCCSc3ccccn3)nc2c1 [Compound B39] |  |  | Not observed | 28% |
| CN(C)C(=O)c1nnc(SCCCCCSc2nc3ccccc3[nH]2)s1 [Compound B18] |  |  | Not observed | 35% |
| c1ccc2[nH]c(SCCCCCSc3ncnc4cn[nH]c34)nc2c1 [Compound B60] |  |  | Not observed | 14% |
| Cc1ccc2[nH]c(SCCCCCCSc3nc4ccccc4[nH]3)nc2c1 [Compound A19, 1-(2'-(5'-methylbenzimidazolyl)thio)-6-(2"-benzimidazolylthio)hexane] | Not observed | 54% |  |  |
| Cc1ccc2[nH]c(SCCCCCSc3nc4cc(Cl)ccc4[nH]3)nc2c1 [Compound A3, 1-(2-(5'-chlorobenzimidazolyl)thio)-5-(2"-(5"-methylbenzimidazolyl)thio)pentane] | Not observed | 36% |  |  |
| Clc1ccc2sc(SCCCCCSc3nc4ccccc4[nH]3)nc2c1 [Compound A34, 1-(2'-benzimidazolylthio)-5-(2"-(5"-chlorobenzothiazolyl)thio)pentane] | Not observed | 28% |  |  |

| Structure (SMILES) | Cytotoxicity ([1]; Table 3) | activity at 5 µM ([2]; Table 3) | Cytotoxicity ([1]; Table 4) | activity at 5 µM ([2]; Table 4) |
| --- | --- | --- | --- | --- |
| c1ccc(-c2nnc(SCCCCCSc3nc4ccccc4[nH]3)o2)cc1 [Compound B26] |  |  | Not observed | 12% |
| Cc1ccc2[nH]c(SCCCCSc3nc4ccccc4[nH]3)nc2c1 [Compound A18, 1-(2'-(5'-methylbenzimidazolyl)thio)-4-(2"-benzimidazolylthio)butane] | Not observed | 52% |  |  |
| c1ccc2[nH]c(SCCCCCSC3=NCCCN3)nc2c1 [Compound B54] |  |  | Not observed | 24% |
| c1ccc2[nH]c(SCCCCCSc3nc4ccccc4s3)nc2c1 [Compound A33, 1-(2'-benzimidazolylthio)-5-(2"-benzothiazolylthio)pentane] | Not observed | 13% |  |  |
| c1ccc2[nH]c(SCCCCCSc3ccncc3)nc2c1 [Compound B28] |  |  | Not observed | 7.6% |
| [O-][n+]1ccccc1SCCCCCSc1nc2ccccc2[nH]1 [Compound B40] |  |  | Not observed | 25% |
| c1ccc2[nH]c(SCCCCCSc3nc4ccccc4o3)nc2c1 [Compound A37, 1-(2'-benzimidazolylthio)-5-(2"-benzoxazolylthio)pentane] | Not observed | 13% |  |  |
| c1ccc(-n2ccnc2SCCCCCSc2nc3ccccc3[nH]2)cc1 [Compound B3] |  |  | Not observed | 34% |
| c1ccc(SCCCCCSc2nc3ccccc3[nH]2)nc1 [Compound B30, 5-(2'-Benzimidazolylthio)-1-(2"-pyridylthio)pentane] |  |  | Not observed | 9% |
| FC(F)(F)c1cc2[nH]c(SCCCCCSc3nc4ccccc4[nH]3)nc2cc1Cl [Compound A16, 1-(2'-(5'-chloro-6'-trifluoromethylbenzimidazolyl)thio)-5-(2"-benzimidazolylthio)pentane] | Not observed | 34% |  |  |
| c1ccc(SCCCCCCCc2nc3ccccc3[nH]2)nc1 [Compound B47] |  |  | Not observed | 23% |
| Cc1ccc2[nH]c(SCCOCCSc3nc4ccccc4[nH]3)nc2c1 [Compound A21] | Not observed | 24% |  |  |
| c1ccc2[nH]c(SCCCCCSc3ncnc4nc[nH]c34)nc2c1 [Compound B59] |  |  | Not observed | 9.2% |
| c1ccc(SCCOCCSc2nc3ccccc3[nH]2)nc1 [Compound B67] |  |  | Not observed | 54% |
| c1ccc2nc(SCCCCCSc3nc4ccccc4[nH]3)ccc2c1 [Compound B57] |  |  | Not observed | 26% |
| c1ccc2[nH]c(CCCCCSc3nc4ccccc4[nH]3)nc2c1 [Compound A27, 2-(5-(2'-benzimidazolylthio)pentyl)benzimidazole] | Not observed | 48% |  |  |
| c1ccc(SCCCCCCCCCCCc2nc3ccccc3[nH]2)nc1 [Compound B48] |  |  | Not observed | 41% |
| CCCc1cc(SCCCCCSc2nc3ccccc3[nH]2)n2ncnc2n1 [Compound B61] |  |  | Not observed | 12% |
| CC(=O)Nc1nnc(SCCCCCSc2nc3ccccc3[nH]2)n1C [Compound B9] |  |  | Not observed | 35% |
| Cn1c(SCCCCCSc2ccccn2)nc2ccccc21 [Compound B64, 5-(2'-(1'-methylbenzimidazolyl)thio)-1-(2"-pyridylthio)pentane] |  |  | Not observed | 24% |
